From patent US10967086B2, “Silver nanoparticle-enhanced photosensitizers as antibiofilm agents” (University Of Cincinnati, priority 2014, dated 2021) come the findings set out here.

Where a name gives a salt, the structure may show the parent alone.

A short description of data set [1]: Loading efficiency of photosensitizers in the hybrids (UV-Vis absorption). It counts as physicochemical. The following applies: named photosensitizer loaded into Ag@mSiO2@photosensitizer hybrid; Example 1. The protocol:
The loading efficiencies of the photosensitizers in the hybrids were determined by UV-Vis absorption. […] Zeta potential measurements were carried out to further investigate the surface properties of the hybrids.
The morphology of the Ag@mSiO2@photosensitizer hybrids was characterized by a Phillips Biotwin 12 transmission electron microscope (FEI). TEM samples were prepared by directly applying 10 μL of the sample ethanol solution onto a carbon-coated copper grid (300 mesh, EMS) and left to dry at room temperature. UV-Vis absorption spectra were measured using a UV-Vis spectrometer (USB4000-ISS, Ocean Optics). The loading efficiency of photosensitizers was determined by measuring the photosensitizers in the supernatant after centrifugation via UV-Vis absorption spectra. The Ag^+ concentration was measured by a triple quadruple ICP-MS (ICP-QQQ, Agilent Technologies).

The test system of data set [2] is Escherichia coli (ATCC 35218) biofilm. The experiment in a line: Photodynamic inactivation of biofilms, LED, plate count. It counts as cell-based. The protocol: (§1) Typically, overnight biofilms of Escherichia coli (ATCC 35218), and S. aureus (MRSA) (ATCC BAA44) were washed with PBS buffer solution (pH=7.4), mixed with a series of concentrations of Ag@mSiO2@HPIX hybrid, HPIX (dissolved in the same PBS buffer solution), or Ag@mSiO2 nanoparticles, and these mixtures were incubated for an hour. All biofilms were illuminated with different fluences from a light emitting diode. After illumination, the biofilm was washed to remove the nanoparticle solution or HPIX and disrupted biofilm. A serial dilution was performed and 10 μL of each dilution was plated on an MHB place and incubated for 24 hours at 37° C. Bacterial biofilm viability was determined by a modified version of the Miles and Misra method.
(§2) The suspensions were serially 10-fold diluted with PBS. Then, drops of 10 μL of each dilution were applied onto MH II agar plates. Plates were streaked in triplicate and incubated for 18-24 h at 37° C. in the dark before counting. A non-coherent, white light source with interchangeable fiber bundle (model LC-122, LumaCare) was used in all photoinactivation experiments. The irradiance at the position of the samples was kept at 300 mW/cm^2, as measured by a laser power meter (Model 840011, SPER Scientific).
(§3) The in vitro PDI of MRSA (ATCC BAA44) and E. coli (ATCC 35218) was investigated using different concentrations of Ag@mSiO2@HPIX hybrids, pure HPIX and Ag@mSiO2. Control experiments were carried out without the LED illumination. […] Separately, MRSA and E. coli samples were treated with an LED light source (400 nm, 1000 mW/cm2), after incubating for 1 h. with different concentrations of the Ag@mSiO2@HPIX hybrids, free HPIX, and Ag@mSiO2, respectively. […] Plate count method was employed to determine the viable biofilm count, after the growth of the biofilm became visible. […] In these experiments, the pure HPIX and Ag@mSiO2@HPIX hybrids have the same concentration of HPIX while the amounts of Ag in Ag@mSiO2@HPIX hybrids and Ag@mSiO2 was also kept constant.
(§4) The enhancement of antibiofilm PDI efficacy of Ag@mSiO2@HPIX hybrids is defined as log10(enhancement)=log10(Ag@mSiO2@HPIX_killing)−log10(Ag@mSiO2_killing)−log10(HPIX_killing)

The subject of data set [3] is S. aureus (MRSA) (ATCC BAA44) biofilm. The data set is described as above. It is filed as cell-based. The protocol:
as §1, §2, §3, §4

The test system of data set [4] is T. rubrum (ATCC 28188). As to the kind of experiment: Photodynamic inactivation of T. rubrum, LED, plate count. It counts as cell-based, Tricophyton rubrum. As for the experimental part:
The in vitro PDI of T. rubrum (ATCC 28188) was investigated using different concentrations of Ag@mSiO2@HPIX hybrids, pure HPIX and Ag@mSiO2. Control experiments were carried out without the LED illumination. […] Separately, T. rubrum samples were treated with an LED light source (400 nm, 54 mW/cm2), after incubating for 30 min. with different concentrations of the Ag@mSiO2@HPIX hybrids, free HPIX, and Ag@mSiO2, respectively. […] Plate count method was employed to determine the viable fungal count, after the growth of the T. rubrum became visible. […] In these experiments, the pure HPIX and Ag@mSiO2@HPIX hybrids have the same concentration of HPIX while the amounts of Ag in Ag@mSiO2@HPIX hybrids and Ag@mSiO2 was also kept constant. The enhancement of antifungal PDI efficacy of Ag@mSiO2@HPIX hybrids is defined as log10(enhancement)=log10(Ag@mSiO2@HPIX_killing)−log10(Ag@mSiO2_killing)−log10(HPIX_killing)

Data set [5] deals with Staphylococcus epidermidis (ATCC 35984). As to the kind of experiment: Photodynamic inactivation assay, white light, plate count. It counts as cell-based. The protocol: (§5) Photodynamic Inactivation Assays. Typically, overnight cultures of Staphylococcus epidermidis (ATCC 35984), Escherichia coli (ATCC 35218), and Acinetobacter baumannii (ATCC 19606) were inoculated into PBS buffer solution (pH=7.4) and mixed with a series of concentrations of Ag@mSiO2@HPIX hybrid, HPIX (dissolved in the same PBS buffer solution), or Ag@mSiO2 nanoparticles. All bacterial suspensions (200 μL) were then placed in the wells of 96-well plates. The final cell concentration of the suspensions was between about 10^6 and 10^7 colony-forming units per mL (CFU/mL). The wells were illuminated with different fluences. After illumination, a plate count was performed. Bacterial viability was determined by a modified version of the Miles and Misra method.
as §2
Ag@mSiO2@HPIX was used as a model system in the PDI study. Ag@mSiO2@HPIX was first tested with S. epidermidis, a Gram-positive bacterium. […]

For data set [6], the system named is Escherichia coli (ATCC 35218). The description is as above. The following applies: Example 2. It is filed as cell-based. The protocol: as §5
(§6) The suspensions were serially 10-fold diluted with PBS. Then, drops of 10 μL of each dilution were applied onto MH II agar plates. Plates were streaked in triplicate and incubated for 18-24 h at 37° C. in the dark before counting. A non-coherent, white light source with interchangeable fiber bundle (model LC-122, LumaCare) was used in all photoinactivation experiments. The irradiance at the position of the samples was kept at 300 mW/cm^2, as measured by a laser power meter (Model 840011, SPER Scientific). […]

The subject of data set [7] is Acinetobacter baumannii (ATCC 19606). The data set is described as above. It is filed as cell-based. Conditions: Example 2. The protocol:
as §5, §6

The mark [8] stands for this setting: LED 400 nm, 1000 mW/cm2 (blue LED 1 W/cm^2, up to 90 min), after 1 h incubation.
[9] abbreviates: dark control, tested concentrations.

Consider `CC1=C(CCC(=O)O)c2cc3[nH]c(cc4nc(cc5[nH]c(cc1n2)c(C)c5C(C)O)C(C)=C4C(C)O)c(C)c3CCC(=O)O` (stereo not shown) [HPIX, hematoporphyrin IX dihydrochloride], for which the loading efficiency in data set [1] amounted to 27.4 µg/mg. The “PDI efficacy on biofilm under LED illumination” value in data set [2] (setting [8]) and in data set [3] (setting [8]) was “negligible PDI efficacy” in each case. Further, the “antibiofilm effects without LED illumination” value in data set [2] (setting [9]) is recorded as “None of the Ag@mSiO2@HPIX hybrids, pure HPIX or Ag@mSiO2 at the tested concentrations shows antibiofilm effects”; in data set [3] (setting [9]) it was “None of the Ag@mSiO2@HPIX hybrids, pure HPIX or Ag@mSiO2 at the tested concentrations shows antibiofilm effects”. In addition, in data set [4] (LED 400 nm, 54 mW/cm2, after 30 min incubation), the “PDI efficacy under LED illumination” value is on record as “negligible PDI efficacy”. For the same molecule, in data set [4] (setting [9]), the “antifungal effect without LED illumination” value is “None of the Ag@mSiO2@HPIX hybrids, pure HPIX or Ag@mSiO2 at the tested concentrations shows antifungal effect”. The “antibacterial effect without light illumination” value in data set [5] (parallel dark experiments) was “negligible antibacterial effect”.

For the molecule `O=C([O-])c1ccc(C2=C3C=CC(=N3)C(c3ccc(C(=O)[O-])cc3)=C3C=CC(=N3)C(=c3ccc(=C([O-])[O-])cc3)c3ccc([n-]3)C(c3ccc(C(=O)[O-])cc3)=C3C=CC2=N3)cc1.[67Cu+2].[H+].[H+].[H+].[H+]` [Cu-TCPP, Cu(II) meso-tetra(4-carboxyphenyl) porphine], the loading efficiency in data set [1] came out at 260.5 µg/mg.

On to `O=C(O)c1ccc(-c2c3nc(c(-c4ccc(C(=O)O)cc4)c4ccc([nH]4)c(-c4ccc(C(=O)O)cc4)c4nc(c(-c5ccc(C(=O)O)cc5)c5ccc2[nH]5)C=C4)C=C3)cc1` [TCPP, meso-tetra(4-carboxyphenyl) porphine], for which the loading efficiency in data set [1] is 140.7 µg/mg.

On to “tris(2,2′-bipyridyl)dichlororuthenium(II) hexahydrate [RuBPy]”, for which the loading efficiency in data set [1] was 28.3 µg/mg.

On to `CCC1=C(C)c2cc3[nH]c(cc4[nH]c(cc5nc(cc1n2)C(C)=C5CC)c(C)c4CCC(=O)O)c(CCC(=O)O)c3C` [PIX, meso-porphyrin IX], for which the loading efficiency in data set [1] came out at 750 µg/mg.

For the molecule `O=C1OC2(c3cc(I)c(O)c(I)c3Oc3c2cc(I)c(O)c3I)c2c(Cl)c(Cl)c(Cl)c(Cl)c21` [RB, rose bengal], the loading efficiency in data set [1] amounted to 33.6 µg/mg.

For `Cc1cc2nc3c(=O)[nH]c(=O)nc-3n(C[C@H](O)[C@H](O)[C@H](O)CO)c2cc1C` [Riboflavin, riboflavin], the “killing efficacy under visible light and near-infrared irradiations” value in data set [6], in data set [7] and in data set [5] (Example 2) was “needs visible light excitation to display rather moderate antibacterial effect” throughout.
